Experiments:
Type in all cases: functional
Conditions in all cases: route intraperitoneal
[1] = system: Mus musculus; test: Antidepressant activity in Swiss mouse assessed as immobility time at 15 mg/kg, ip thrice a day by 5-mins swim test
[2] = system: Mus musculus; test: Antidepressant activity in Swiss mouse assessed as immobility time at 1 mg/kg, ip thrice a day by 5-mins swim test
[3] = system: Mus musculus; test: Antidepressant activity in Swiss mouse assessed as immobility time at 30 mg/kg, ip thrice a day by 5-mins swim test
[4] = system: Mus musculus; test: Antidepressant activity in Swiss mouse assessed as reduction in immobility time at 30 mg/kg/day, ip after 10 days by 5-mins swim test; set-up: scale not given: the % may be the effect or the level left
[5] = system: Mus musculus; test: Antidepressant activity in Swiss mouse assessed as immobility time at 30 mg/kg/day, ip after 10 days by 5-mins swim test
[6] = system: Mus musculus; test: Antidepressant activity in Swiss mouse assessed as immobility time at 5 mg/kg, ip thrice a day by 5-mins swim test
[7] = system: Mus musculus; test: Antidepressant activity in Swiss mouse assessed as immobility time at 50 mg/kg, ip thrice a day by 5-mins swim test
[8] = system: Mus musculus; test: Effect on motor co-ordination in Swiss mouse assessed as number of falls at 30 mg/kg, ip after 10 days by Rota-rod test
[9] = system: Mus musculus; test: Effect on motor co-ordination in Swiss mouse assessed as time on rotating bar at 30 mg/kg, ip after 10 days by Rota-rod test
[10] = system: Mus musculus; test: Antidepressant activity in Swiss mouse assessed as immobility time at 100 mg/kg, ip thrice a day by 5-mins swim test
[11] = system: Mus musculus; test: Antidepressant activity in Swiss mouse assessed as reduction in immobility time at 50 mg/kg/day, ip after 10 days by 5-mins swim test; set-up: scale not given: the % may be the effect or the level left
[12] = system: Mus musculus; test: Antidepressant activity in Swiss mouse assessed as immobility time at 50 mg/kg/day, ip after 10 days by 5-mins swim test
[13] = system: Mus musculus; test: Effect on motor co-ordination in Swiss mouse assessed as time on rotating bar at 50 mg/kg, ip after 10 days by Rota-rod test
[14] = system: Mus musculus; test: Effect on motor co-ordination in Swiss mouse assessed as number of falls at 50 mg/kg, ip after 10 days by Rota-rod test
[15] = system: Mus musculus; test: Effect on motor co-ordination in Swiss mouse assessed as number of falls at 15 mg/kg, ip after 10 days by Rota-rod test
[16] = system: Mus musculus; test: Effect on motor co-ordination in Swiss mouse assessed as time on rotating bar at 15 mg/kg, ip after 10 days by Rota-rod test

Row | Structure (SMILES) | Time [1] | Time [2] | Time [3] | Activity [4] | Time [5] | Time [6] | Time [7] | Activity [8] | Time [9] | Time [10] | Activity [11] | Time [12] | Time [13] | Activity [14] | Activity [15] | Time [16]
1 | c1ccc2c(c1)CCc1cccc3c1C2=NCCN3 | 186.57 s | 215 s | 169.92 s | 15% | 186.4 s | 197 s | 199.25 s | 0.4 | 58.6 s |  |  |  |  |  |  | 
2 | CN(C)CCCNc1cccc2c1C(=O)c1ccccc1CC2 | 187.1 s |  | 169.31 s |  |  | 220.22 s | 132 s |  |  | 206.38 s | 13% | 190.33 s | 59.5 s | 0.5 |  | 
3 | CN(C)CCCN1c2ccccc2CCc2ccccc21 [IMIPRAMINE] | 137.33 s |  |  |  |  |  |  |  |  |  |  |  |  |  | 0.83 | 58.11 s

Source: ChEMBL document CHEMBL1146357, “Antidepressant-like profile of action of two 4-amine derivatives of 10,11-dihydro-5H-dibenzo [a,d] cycloheptane in mice evaluated in the forced swimming test” (2007)
